# Test results: patent publication US7081531B2, “Bridged bicyclic amine derivatives useful as CCR-3 receptor antagonists” (Roche Palo Alto LLC, priority 2003, dated 2006)
# Legend:
# CCR-3 receptor = target: T1, CCR-3 receptor (Homo sapiens, UniProt P51677); experiment: CCR-3 receptor binding assay, inhibition of 125I eotaxin binding to CCR-3 L1.2 transfectant cells; settings: inhibition of 125I-eotaxin binding to CCR-3 L1.2 transfected cells, 1 hour at rt
# T1 construct: expressed in transfected cells; host or cells: L1.2 (murine pre-beta lymphoma line) transfected with CCR-3
# T1 sequence (P51677 1-355): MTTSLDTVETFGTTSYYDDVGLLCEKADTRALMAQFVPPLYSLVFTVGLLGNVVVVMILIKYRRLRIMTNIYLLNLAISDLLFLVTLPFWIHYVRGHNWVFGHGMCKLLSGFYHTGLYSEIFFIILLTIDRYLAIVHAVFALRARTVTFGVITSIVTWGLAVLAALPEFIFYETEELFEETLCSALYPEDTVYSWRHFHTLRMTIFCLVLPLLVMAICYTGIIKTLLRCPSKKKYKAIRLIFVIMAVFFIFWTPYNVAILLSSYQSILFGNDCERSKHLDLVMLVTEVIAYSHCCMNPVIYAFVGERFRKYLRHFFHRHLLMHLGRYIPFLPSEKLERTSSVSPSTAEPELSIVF
# Description: CCR-3 Receptor Binding Assay—In Vitro
# The CCR-3 antagonistic activity of the compounds of the invention was determined by their ability to inhibit the binding of ^125I eotaxin to CCR-3 L1.2 transfectant cells (see Ponath, P. D. et al., J. Exp. Med., 183:2437–48, (1996)).
# The assay was performed in Costar 96-well polypropylene round bottom plates. Test compounds were dissolved in DMSO and then diluted with binding buffer (50 mM HEPES, 1 mM CaCl2, 5 mM MgCl2, 0.5% bovine serum albumin (BSA), 0.02% sodium azide, pH 7.24) such that the final DMSO concentration was 2%. 25 μl of the test solution or only buffer with DMSO (control samples) was added to each well, followed by the addition of 25 μl of ^125I-eotaxin ([…]) (NEX314, New England Nuclear, Boston, Mass.) and 1.5×10^5 of the CCR-3 L1.2 transfected cells in 25 μl binding buffer. The final reaction volume was 75 μl.
# After incubating the reaction mixture for 1 hour at rt, the reaction was terminated by filtering the reaction mixture through a polyethylenimine-treated Packard Unifilter GF/C filter plate (Packard, Chicago, Ill.). The filters were washed four times with ice cold wash buffer containing 10 mm HEPES and 0.5 M sodium chloride (pH 7.2) and dried at 65° C. for approximately 10 minutes. 25 μl/well of Microscint-20® scintillation fluid (Packard) was added and the radioactivity retained on the filters was determined by using the Packard TopCount®
# Compounds of this invention were active in this assay.
IC50 (CCR-3 receptor),melting point,SMILES
331 nM,–,"Cc1c(CN2CC3CCC2CC3Cc2ccc(Cl)c(Cl)c2)c(=O)n(-c2ccccc2)n1C (stereo not shown) [Example 2, 4-[5-(3,4-Dichloro-benzyl)-2-aza-bicyclo[2.2.2]oct-2-ylmethyl]-1,5-dimethyl-2-phenyl-1,2-dihydro-pyrazol-3-one]"
965 nM,–,"Cc1c(CN2C3CCC2CC(Cc2ccc(Cl)c(Cl)c2)C3)c(=O)n(-c2ccccc2)n1C (stereo not shown) [Example 6, 4-[3-(3,4-dichloro-benzyl)-8-aza-bicyclo[3.2.1]oct-8-ylmethyl]-1,5-dimethyl-2-phenyl-1,2-dihydro-pyrazol-3-one]"
8.2 nM,118 to 123 °C,COc1cc(NC(=O)N[C@@H](CN2C3CCC2CC(Cc2ccc(Cl)cc2)C3)[C@@H](C)O)cc(OC)c1OC (stereo partly shown) [Example 7]
